Results published in the supplement of paper PMC12463676, “Small-molecule dissolution of stress granules by redox modulation benefits ALS models” (Nature Chemical Biology, 2025).

Columns and labels:
potassium arsenate = compound: O=[As]([O-])(O)O.[K+] [potassium arsenate]; assay: thermal stability z-score vs DMSO; higher = more thermally stabilized by treatment; details: HeLa; arsenate concentration 1 mM
Procedure: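 Cellular thermal proteome profiling in HeLa cells treated with 1 mM arsenate for 1 h (DMSO pretreatment), heated to ten temperatures (37-66.3 °C). Soluble protein was quantified by TMT mass spectrometry relative to DMSO controls; the thermal stability score was transformed to a z-score; mean of n = 3 experiments.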

lipoamide = compound: NC(=O)CCCCC1CCSS1 [lipoamide]; assay: as above; details: HeLa, lipoamide concentration 100 µM
Procedure: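 Cellular thermal proteome profiling in HeLa cells. Cells were treated with 100 µM lipoamide for 1 h, with or without 1 mM arsenate for a further 1 h, then heated to ten temperatures (37-66.3 °C), and soluble protein was quantified by TMT mass spectrometry relative to 0.1% DMSO controls. The thermal stability score (sum of log2 fold changes minus the abundance score) was transformed to a z-score; mean of n = 3 experiments.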

[1] = arsenate co-treatment: 1 mM arsenate 1 h
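Note: each temperature applied for 3 min, abundance score taken as mean log2 fold change at the two lowest temperatures, z-score obtained by mean subtraction and division by SD.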

Sequence of UniProt Q96Q15 (Q96Q15 whole entry): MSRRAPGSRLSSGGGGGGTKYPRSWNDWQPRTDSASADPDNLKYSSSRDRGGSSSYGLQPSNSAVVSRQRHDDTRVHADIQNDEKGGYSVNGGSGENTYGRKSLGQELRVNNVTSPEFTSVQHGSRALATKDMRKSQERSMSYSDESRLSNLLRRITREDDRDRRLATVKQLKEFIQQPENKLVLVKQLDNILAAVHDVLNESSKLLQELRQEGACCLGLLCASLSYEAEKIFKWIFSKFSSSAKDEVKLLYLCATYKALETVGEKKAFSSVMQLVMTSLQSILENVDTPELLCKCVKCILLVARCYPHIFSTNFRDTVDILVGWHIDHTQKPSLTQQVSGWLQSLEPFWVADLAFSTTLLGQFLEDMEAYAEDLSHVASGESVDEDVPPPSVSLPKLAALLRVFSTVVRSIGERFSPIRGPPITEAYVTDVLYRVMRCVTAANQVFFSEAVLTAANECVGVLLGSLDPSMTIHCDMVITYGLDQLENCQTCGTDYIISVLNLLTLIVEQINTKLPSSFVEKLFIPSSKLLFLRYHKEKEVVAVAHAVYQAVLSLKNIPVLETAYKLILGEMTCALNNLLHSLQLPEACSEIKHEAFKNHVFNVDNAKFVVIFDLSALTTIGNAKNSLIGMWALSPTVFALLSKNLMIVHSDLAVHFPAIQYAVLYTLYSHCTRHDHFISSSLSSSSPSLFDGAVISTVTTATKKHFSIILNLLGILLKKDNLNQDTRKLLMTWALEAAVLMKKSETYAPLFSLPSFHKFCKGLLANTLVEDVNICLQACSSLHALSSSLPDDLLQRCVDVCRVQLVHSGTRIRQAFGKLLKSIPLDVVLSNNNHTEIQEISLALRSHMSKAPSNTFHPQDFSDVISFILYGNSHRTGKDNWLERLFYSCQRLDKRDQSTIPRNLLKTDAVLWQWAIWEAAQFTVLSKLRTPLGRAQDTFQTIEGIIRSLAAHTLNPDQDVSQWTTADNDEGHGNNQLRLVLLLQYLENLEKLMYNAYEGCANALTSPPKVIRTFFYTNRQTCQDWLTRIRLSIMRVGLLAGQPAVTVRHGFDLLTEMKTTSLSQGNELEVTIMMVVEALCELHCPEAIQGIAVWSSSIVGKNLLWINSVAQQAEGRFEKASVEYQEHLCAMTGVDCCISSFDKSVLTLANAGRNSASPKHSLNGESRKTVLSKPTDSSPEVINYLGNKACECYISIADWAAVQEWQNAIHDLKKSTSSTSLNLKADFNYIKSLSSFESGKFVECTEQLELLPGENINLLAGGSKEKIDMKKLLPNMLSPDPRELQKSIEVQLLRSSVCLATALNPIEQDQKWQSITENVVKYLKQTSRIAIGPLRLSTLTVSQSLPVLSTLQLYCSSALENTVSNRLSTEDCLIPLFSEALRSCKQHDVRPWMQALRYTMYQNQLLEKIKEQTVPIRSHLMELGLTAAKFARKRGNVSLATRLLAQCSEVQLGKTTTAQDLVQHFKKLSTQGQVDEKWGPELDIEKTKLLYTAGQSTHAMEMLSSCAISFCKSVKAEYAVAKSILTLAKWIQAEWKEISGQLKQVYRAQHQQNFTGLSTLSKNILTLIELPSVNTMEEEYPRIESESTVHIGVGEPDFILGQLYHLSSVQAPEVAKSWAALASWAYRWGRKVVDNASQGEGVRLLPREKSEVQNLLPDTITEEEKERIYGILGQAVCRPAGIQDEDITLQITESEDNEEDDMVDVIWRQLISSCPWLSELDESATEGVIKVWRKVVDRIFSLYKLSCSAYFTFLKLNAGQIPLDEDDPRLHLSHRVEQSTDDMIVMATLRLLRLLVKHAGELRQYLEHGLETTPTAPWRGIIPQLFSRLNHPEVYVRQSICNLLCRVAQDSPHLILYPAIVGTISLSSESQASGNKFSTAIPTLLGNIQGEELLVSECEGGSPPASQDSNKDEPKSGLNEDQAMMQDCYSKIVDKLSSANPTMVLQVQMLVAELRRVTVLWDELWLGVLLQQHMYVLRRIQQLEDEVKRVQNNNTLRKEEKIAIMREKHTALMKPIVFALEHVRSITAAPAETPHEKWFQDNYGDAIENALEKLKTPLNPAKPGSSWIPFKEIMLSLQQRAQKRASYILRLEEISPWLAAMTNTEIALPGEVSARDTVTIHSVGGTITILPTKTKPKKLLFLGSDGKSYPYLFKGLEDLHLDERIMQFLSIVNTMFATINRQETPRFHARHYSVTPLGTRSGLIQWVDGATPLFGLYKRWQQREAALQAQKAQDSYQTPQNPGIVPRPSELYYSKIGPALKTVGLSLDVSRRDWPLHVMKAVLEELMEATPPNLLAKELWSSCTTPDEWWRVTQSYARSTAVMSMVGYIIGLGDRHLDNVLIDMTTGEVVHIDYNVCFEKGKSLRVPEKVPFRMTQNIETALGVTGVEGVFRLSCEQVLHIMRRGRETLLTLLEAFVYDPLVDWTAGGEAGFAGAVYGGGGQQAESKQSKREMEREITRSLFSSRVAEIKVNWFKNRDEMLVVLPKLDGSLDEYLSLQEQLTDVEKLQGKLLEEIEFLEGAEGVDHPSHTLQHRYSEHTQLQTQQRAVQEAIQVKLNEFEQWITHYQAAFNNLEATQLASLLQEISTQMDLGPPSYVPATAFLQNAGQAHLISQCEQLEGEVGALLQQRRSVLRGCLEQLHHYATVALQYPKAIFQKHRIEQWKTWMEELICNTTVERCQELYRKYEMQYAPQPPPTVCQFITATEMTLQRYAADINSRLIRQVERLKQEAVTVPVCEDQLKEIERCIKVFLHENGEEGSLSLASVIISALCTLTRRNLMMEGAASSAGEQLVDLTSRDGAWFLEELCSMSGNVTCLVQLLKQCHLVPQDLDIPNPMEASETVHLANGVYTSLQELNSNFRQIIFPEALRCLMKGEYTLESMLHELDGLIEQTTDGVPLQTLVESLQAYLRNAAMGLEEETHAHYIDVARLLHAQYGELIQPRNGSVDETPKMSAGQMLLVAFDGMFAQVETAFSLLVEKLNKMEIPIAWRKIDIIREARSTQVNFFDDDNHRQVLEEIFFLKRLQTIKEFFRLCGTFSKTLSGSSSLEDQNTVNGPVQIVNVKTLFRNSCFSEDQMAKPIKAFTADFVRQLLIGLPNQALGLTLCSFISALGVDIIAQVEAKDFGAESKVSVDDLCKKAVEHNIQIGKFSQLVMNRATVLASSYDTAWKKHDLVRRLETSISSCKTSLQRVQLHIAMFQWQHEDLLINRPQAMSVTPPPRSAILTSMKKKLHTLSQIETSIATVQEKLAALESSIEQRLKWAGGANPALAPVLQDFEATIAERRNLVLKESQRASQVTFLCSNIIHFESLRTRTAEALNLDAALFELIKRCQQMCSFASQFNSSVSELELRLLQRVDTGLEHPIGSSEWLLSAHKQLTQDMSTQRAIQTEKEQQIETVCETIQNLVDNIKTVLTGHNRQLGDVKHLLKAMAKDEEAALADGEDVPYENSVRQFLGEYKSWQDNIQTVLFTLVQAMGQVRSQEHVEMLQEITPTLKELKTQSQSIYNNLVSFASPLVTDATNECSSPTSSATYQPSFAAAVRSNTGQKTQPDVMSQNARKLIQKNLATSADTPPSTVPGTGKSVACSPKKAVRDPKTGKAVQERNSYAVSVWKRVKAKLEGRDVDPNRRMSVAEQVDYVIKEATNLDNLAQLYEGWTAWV
Sequence of UniProt P07602 (P07602 whole entry): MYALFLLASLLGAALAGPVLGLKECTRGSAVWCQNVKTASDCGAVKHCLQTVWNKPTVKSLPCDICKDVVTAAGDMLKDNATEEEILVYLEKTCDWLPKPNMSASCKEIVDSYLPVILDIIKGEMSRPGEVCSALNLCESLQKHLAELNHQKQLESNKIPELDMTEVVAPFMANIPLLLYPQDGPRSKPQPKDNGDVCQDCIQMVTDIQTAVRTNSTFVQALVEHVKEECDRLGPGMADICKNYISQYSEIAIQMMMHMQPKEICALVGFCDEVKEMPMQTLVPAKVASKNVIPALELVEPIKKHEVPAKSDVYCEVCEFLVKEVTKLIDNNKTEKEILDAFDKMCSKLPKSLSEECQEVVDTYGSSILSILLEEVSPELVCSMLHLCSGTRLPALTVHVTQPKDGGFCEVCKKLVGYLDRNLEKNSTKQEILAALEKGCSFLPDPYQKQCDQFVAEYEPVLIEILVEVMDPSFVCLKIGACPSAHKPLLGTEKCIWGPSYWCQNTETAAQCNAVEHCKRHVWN
Sequence of UniProt Q86W34 (Q86W34 whole entry): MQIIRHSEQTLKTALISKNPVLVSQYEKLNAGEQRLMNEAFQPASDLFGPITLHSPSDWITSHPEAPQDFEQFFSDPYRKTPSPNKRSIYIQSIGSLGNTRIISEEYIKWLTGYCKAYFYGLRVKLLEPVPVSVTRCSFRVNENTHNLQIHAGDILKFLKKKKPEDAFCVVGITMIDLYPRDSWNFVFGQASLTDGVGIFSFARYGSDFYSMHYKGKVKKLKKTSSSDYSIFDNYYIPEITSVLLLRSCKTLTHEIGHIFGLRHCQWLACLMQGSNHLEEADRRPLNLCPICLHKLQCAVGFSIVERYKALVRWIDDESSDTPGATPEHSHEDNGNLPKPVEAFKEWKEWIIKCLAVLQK
Sequence of UniProt P48729 (P48729 whole entry, looked up): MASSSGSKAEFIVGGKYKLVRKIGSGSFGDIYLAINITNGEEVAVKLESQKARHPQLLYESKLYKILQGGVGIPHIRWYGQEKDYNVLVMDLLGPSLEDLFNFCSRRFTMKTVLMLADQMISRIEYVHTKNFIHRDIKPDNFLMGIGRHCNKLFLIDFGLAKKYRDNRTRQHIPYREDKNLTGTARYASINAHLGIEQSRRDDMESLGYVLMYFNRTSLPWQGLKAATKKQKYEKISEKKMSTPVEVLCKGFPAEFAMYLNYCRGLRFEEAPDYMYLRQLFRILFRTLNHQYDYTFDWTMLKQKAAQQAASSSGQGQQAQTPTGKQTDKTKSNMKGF
Sequence of UniProt P09429 (P09429 whole entry): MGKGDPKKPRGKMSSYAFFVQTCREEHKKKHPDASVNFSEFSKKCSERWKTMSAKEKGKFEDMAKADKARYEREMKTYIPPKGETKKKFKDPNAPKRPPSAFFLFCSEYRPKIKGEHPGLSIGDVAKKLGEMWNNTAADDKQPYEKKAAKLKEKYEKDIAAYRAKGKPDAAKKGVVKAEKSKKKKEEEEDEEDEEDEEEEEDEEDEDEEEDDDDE

Row | Target | thermal stability z-score (potassium arsenate) | thermal stability z-score (lipoamide; [1]) | thermal stability z-score (lipoamide; arsenate co-treatment: none)
1 | OXA1L (UniProt Q15070) | -0.251 | -0.709 | -0.369
2 | SEH1L (UniProt Q96EE3) | 0.803 | 0.886 | 0.611
3 | THNSL1 (UniProt Q8IYQ7) | 0.0365 | 0.202 | -0.188
4 | ATP6V1C1 (UniProt P21283) | 0.132 | -0.136 | 0.0202
5 | NAP1L1 (UniProt P55209) | -0.164 | -0.552 | -0.224
6 | AMZ2 (UniProt Q86W34) | 0.211 | 0.33 | -0.032
7 | SIRT6 (UniProt Q8N6T7) | -0.21 | -0.0481 | -0.176
8 | ZFYVE27 (UniProt Q5T4F4) | 0.0943 | -0.0642 | -0.19
9 | CDK1 (UniProt P06493) | 0.246 | 0.163 | -0.0348
10 | FASTKD5 (UniProt Q7L8L6) | 0.437 | -1.07 | 0.633
11 | PLPP2 (UniProt O43688) | -0.114 | -0.387 | -0.14
12 | ACOT7 (UniProt O00154) | -0.151 | 0.237 | 0.304
13 | TMEM65 (UniProt Q6PI78) | 0.128 | -0.379 | -0.204
14 | ELP6 (UniProt Q0PNE2) | 0.998 | 0.56 | -0.141
15 | HMGB1 (UniProt P09429) | 0.309 | 0.26 | 0.59
16 | MTUS1 (UniProt Q9ULD2) | 0.0626 | -0.0967 | 0.692
17 | SMG1 (UniProt Q96Q15) | 0.119 | -0.284 | -0.117
18 | ACAA2 (UniProt P42765) | -0.24 | 0.0666 | 0.0527

Row | Target | thermal stability z-score (potassium arsenate) | thermal stability z-score (lipoamide; [1]) | thermal stability z-score (lipoamide; arsenate co-treatment: none)
19 | PSAP (UniProt P07602) | -0.336 | 0.0503 | -0.136
20 | COA6 (UniProt Q5JTJ3) | 0.756 | 1.7 | 1.85
21 | PLXNA2 (UniProt O75051) | -0.219 | 0.937 | 1.3
22 | MPP7 (UniProt Q5T2T1) | -0.0635 | -0.0378 | -0.274
23 | PSMB4 (UniProt P28070) | 0.545 | 0.411 | 0.72
24 | EIF3J (UniProt O75822) | 0.444 | 0.395 | -0.118
25 | GEMIN6 (UniProt Q8WXD5) | -0.129 | 0.0364 | -0.18
26 | CHMP5 (UniProt Q9NZZ3) | -0.246 | 0.869 | 0.597
27 | USP15 (UniProt Q9Y4E8) | 0.014 | 0.00184 | -0.0791
28 | TRIM24 (UniProt O15164) | -0.334 | 0.0835 | 0.184
29 | PKMYT1 (UniProt Q99640) | -0.0435 | -0.143 | -0.144
30 | ARID4B (UniProt Q4LE39) | -0.419 | 0.0389 | 0.0738
31 | TPD52 (UniProt P55327) | 1.35 | 2.04 | 2.1
32 | HSPE1 (UniProt P61604) | 0.112 | 1.5 | 0.918
33 | FKBP2 (UniProt P26885) | 0.177 | -3.2 | -3.35
34 | CSNK1A1 (UniProt P48729) | 1.08 | -0.534 | -0.478
35 | PQBP1 (UniProt O60828) | -0.0247 | 0.533 | -0.261
